Activity calls are given as the source filed them. No cut-off for these calls is given here.
Key:
Parastagonospora nodorum = assay: Antimicrobial activity against Septoria nodorum; assay type: functional, organism-based
[1] = target: Glycogen synthase kinase-3 beta (Homo sapiens, UniProt P49841); assay: Inhibition of GSK3-beta by luminescent assay
Bacillus subtilis = assay: Antimicrobial activity against Bacillus subtilis DSM 347; assay type: functional, organism-based
Erwinia amylovora = assay: Antimicrobial activity against Erwinia amylovora DSM 50901; assay type: functional, organism-based
Escherichia coli = assay: Antimicrobial activity against Escherichia coli K-12 DSM 498; assay type: functional, organism-based
Pseudomonas fluorescens = assay: Antimicrobial activity against Pseudomonas fluorescens NCIMB 10586; assay type: functional, organism-based
Cutibacterium acnes = assay: Antimicrobial activity against Propionibacterium acnes DSM 1897; assay type: functional, organism-based
Pseudomonas aeruginosa = assay: Antimicrobial activity against Pseudomonas aeruginosa DSM 50071; assay type: functional, organism-based
[2] = system: Pseudomonas syringae pv. aptata str. DSM 50252; assay: Antimicrobial activity against Pseudomonas syringae pv aptata DSM 50252; assay type: functional
Ralstonia solanacearum = assay: Antimicrobial activity against Ralstonia solanacearum DSM 9544; assay type: functional, organism-based
[3] = system: Staphylococcus epidermidis; assay: Antimicrobial activity against Staphylococcus epidermidis DSM 20044; assay type: functional, organism-based
Mammaliicoccus lentus = assay: Antimicrobial activity against Staphylococcus lentus DSM 6672; assay type: functional, organism-based
Xanthomonas campestris = assay: Antimicrobial activity against Xanthomonas campestris DSM 2405; assay type: functional, organism-based
Nakaseomyces glabratus = assay: Antimicrobial activity against Candida glabrata DSM 6425; assay type: functional, organism-based
Zymoseptoria tritici = assay: Antimicrobial activity against Septoria tritici; assay type: functional, organism-based
[4] = Cytotoxicity against mouse NIH/3T3 cells after 24 hrs by celltiter-blue assay; assay type: cell-based; settings: nih3t3, 24 h
HepG2 = assay: Cytotoxicity against human HepG2 cells after 24 hrs by celltiter-blue assay; assay type: functional, cell-based
HT-29 = assay: Cytotoxicity against human HT-29 cells after 24 hrs by celltiter-blue assay; assay type: functional, cell-based

Sequence of Glycogen synthase kinase-3 beta (P49841 whole entry): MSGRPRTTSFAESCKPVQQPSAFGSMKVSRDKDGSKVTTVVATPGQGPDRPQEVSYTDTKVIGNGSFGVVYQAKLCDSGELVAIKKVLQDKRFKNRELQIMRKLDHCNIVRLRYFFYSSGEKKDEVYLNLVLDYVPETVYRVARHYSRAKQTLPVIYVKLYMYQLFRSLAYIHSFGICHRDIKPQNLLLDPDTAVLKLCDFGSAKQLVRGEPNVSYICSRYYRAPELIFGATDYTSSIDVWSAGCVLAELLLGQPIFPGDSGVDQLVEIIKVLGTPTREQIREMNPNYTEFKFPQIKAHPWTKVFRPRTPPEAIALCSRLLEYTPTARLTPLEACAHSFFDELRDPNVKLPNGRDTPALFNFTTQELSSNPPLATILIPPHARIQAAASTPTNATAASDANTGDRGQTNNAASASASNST

Row | SMILES | Activity (Parastagonospora nodorum) | IC50 [1] [µM] | Activity (Bacillus subtilis) | Activity (Erwinia amylovora) | Activity (Escherichia coli) | Activity (Pseudomonas fluorescens) | Activity (Cutibacterium acnes) | Activity (Pseudomonas aeruginosa) | Activity [2] | Activity (Ralstonia solanacearum) | Activity [3] | Activity (Mammaliicoccus lentus) | Activity (Xanthomonas campestris) | Activity (Nakaseomyces glabratus) | Activity (Zymoseptoria tritici) | Activity [4] | Activity (HepG2) | Activity (HT-29)
1 | O=C1OCC(Cc2ccccc2)=C1c1ccccc1 | Active | – | – | – | – | – | – | – | – | – | – | – | – | – | – | – | – | –
2 | O=C1OCC(Cc2ccc(O)cc2)=C1c1ccc(O)cc1 [EUTYPOID B] | – | 0.78 | inactive | inactive | inactive | inactive | inactive | inactive | inactive | inactive | inactive | inactive | inactive | inactive | inactive | Non-toxic | inactive | inactive
3 | O=C1OCC(Cc2ccc(O)c(O)c2)=C1c1ccc(O)cc1 [EUTYPOID C] | – | 0.67 | inactive | inactive | inactive | inactive | inactive | inactive | inactive | inactive | inactive | inactive | inactive | inactive | inactive | Non-toxic | inactive | inactive
4 | O=C1OCC(Cc2ccc(O)cc2)=C1c1cc(O)cc(O)c1 [EUTYPOID D] | – | 4.08 | inactive | inactive | inactive | inactive | inactive | inactive | inactive | inactive | inactive | inactive | inactive | inactive | inactive | Non-toxic | inactive | inactive
5 | O=C1OCC(Cc2ccc(O)c(O)c2)=C1c1cc(O)cc(O)c1 [EUTYPOID E] | – | 2.26 | inactive | inactive | inactive | inactive | inactive | inactive | inactive | inactive | inactive | inactive | inactive | inactive | inactive | Non-toxic | inactive | inactive

— ChEMBL document CHEMBL1667734, “Eutypoids B-E produced by a Penicillium sp. strain from the North Sea” (J Nat Prod, 2011)
